Experimental data published in patent US11643385B2, “Polymorphic forms of RAD1901-2HCl” (RADIUS PHARMACEUTICALS, INC., priority 2018, dated 2023).
Read-outs that look alike come from different tables or passages of the source. Marks after values point to notes of the source that are not given here.

What was measured:
Assay type in all cases: physicochemical
[1] = Solubility assessment of amorphous RAD1901-2HCl in water/organic solvent mixtures; conditions: for XRPD (form) after stirring: after stirring at 25° C. for 72 hours
Description: Samples of amorphous RAD1901-2HCl were prepared in water/organic solvent mixtures containing varying ratios of water. The organic solvents chosen were anhydrous ethanol, methanol and ethyl acetate. The percentage of water in the water/organic solvent mixtures was varied between 0 and 10% (v/v) in order to place a limit on the level of water that can be present during production processes, and to retain formation of Form 1. Above this water activity limit, the hydrated Form 3 will be obtained, as shown by GVS experiments (see FIGS. 6G and 20A). It should be noted that samples prepared in ethyl acetate, were either slurried in anhydrous ethyl acetate, or in water saturated ethyl acetate.
The water activity values for each water/organic solvent mixture are provided in Table 16, and were calculated using the reference given in Bell, Halling, Enzyme Microbiol. Technol. 1997, 20, 471, incorporated herein by reference.

[2] = Solubility assessment and polymorph screen on amorphous RAD1901-2HCl; conditions: for XRPD post 50° C./RT (form): after maturation at 50° C./RT; for Solubility observation at 10 vol.: amorphous RAD1901-2HCl, 10 vol. solvent (solvent per sample ID); for XRPD post 25° C. (form): after maturation at 25° C.
Description: In a scale-up preparation of amorphous RAD1901-2HCl, RAD1901-2HCl (600 mg) was dissolved in water (20 vol., 12 mL) and filtered to remove any remaining solid particles. The solution was then aliquoted into 24 HPLC vials, frozen in a dry ice/acetone bath and the solvent removed by lyophilisation. Solids produced by lyophilization were used directly in solubility assessment and polymorph screens in Example 4.
Amorphous RAD1901-2HCl prepared as described in Example 3B was used directly in solubility assessment and polymorph screens (Table 15). XRPD patterns were further obtained for amorphous RAD1901-2HCl prepared using other solvents.
In the polymorph screen of the amorphous RAD1901-2HCl prepared as described in Example 3B, an aliquot of each sample was examined for its morphology under the microscope, both after maturing at 25° C., and after maturing at 50° C./RT. […] In some instances, the sample appeared to be a mixture of various polymorphic forms, e.g. Form 2 and Form 3 (FIGS. 18B-18C), similar to the mixture of Forms 2 and 3 in Sample 2 having an equilibrium between the two solid forms, depending on the prevailing RH.

[3] = Storage at elevated temperature/humidity, solid form checked by XRPD; conditions: <40% RH, 8 hr
Description: Samples 1 and 2 were characterized by XRPD at various conditions. XRPD patterns were collected for the samples at ambient condition as the samples were provided; at variable temperature (VT-XRPD); at variable humidity (VH-XRPD); after the samples were exposed to 40° C./75% RH for 1 week and 25° C./97% RH for 1 week, respectively; and after a GVS measurement wherein the samples were exposed to 0-90% RH. Samples 1 and 2 were also characterized by ^1H NMR, TGA, DSC, KF, IC, GVS (exposed to 0-90% RH), PLM, SEM, and HPLC (Table 5). […]

SMILES | XRPD (form) after stirring [1] | XRPD post 50° C./RT (form) [2] | Solubility observation at 10 vol. [2] | Observation After maturation at 50° C. ([2]; maturation at 50° C./RT) | also measured
CCNCCc1ccc(CN(CC)c2cc(OC)ccc2[C@@H]2CCc3cc(O)ccc3C2)cc1.Cl.Cl [Form C8.] | Form 2 |  |  |  | Observation After stirring at 25° C. for 72 hours [1]: Crystals
CCNCCc1ccc(CN(CC)c2cc(OC)ccc2[C@@H]2CCc3cc(O)ccc3C2)cc1.Cl.Cl [Form B1.] |  | Amorphous | X (X = suspension) |  | 
CCNCCc1ccc(CN(CC)c2cc(OC)ccc2[C@@H]2CCc3cc(O)ccc3C2)cc1.Cl.Cl [Form C9.] | Form 1* |  |  |  | Solubility observation at 20 vol. [1]: X (X = suspension); Solubility observation at 30 vol [1]: X (X = suspension)
CCNCCc1ccc(CN(CC)c2cc(OC)ccc2[C@@H]2CCc3cc(O)ccc3C2)cc1.Cl.Cl [Form C3.] | Form 1 |  |  |  | 
CCNCCc1ccc(CN(CC)c2cc(OC)ccc2[C@@H]2CCc3cc(O)ccc3C2)cc1.Cl.Cl [amorphous RAD1901-2HCl] |  |  |  |  | Form crystallized in anhydrous ethanol ([1]; anhydrous ethanol): Form 1; Form produced by slurrying in anhydrous ethyl acetate ([1]; anhydrous ethyl acetate): Form 1; Form crystallized in anhydrous methanol ([1]; anhydrous methanol): Form 2; Form produced by slurrying in water-saturated ethyl acetate ([1]; water-saturated ethyl acetate, water activity 0.77): Form 3; Ratio of water/ethanol up to which crystals were Form 1 ([1]; water/ethanol): up to 5%; Water activity limit above which hydrate Form 3 results instead of Form 1 ([1]; water/ethanol): 0.39; Ratio of water/methanol up to which crystals were Form 2 ([1]; water/methanol): ≤ 2%; Water activity limit above which hydrate Form 3 results instead of Form 2 ([1]; water/methanol): 0.08
CCNCCc1ccc(CN(CC)c2cc(OC)ccc2[C@@H]2CCc3cc(O)ccc3C2)cc1.Cl.Cl [Form B12.] |  | Form 3 | S (S = solution) | Lath | XRPD post 25° C. (form) [2]: Form 3
CCNCCc1ccc(CN(CC)c2cc(OC)ccc2[C@@H]2CCc3cc(O)ccc3C2)cc1.Cl.Cl [Form B13.] |  | Poor | X (X = suspension) | Some | XRPD post 25° C. (form) [2]: Amorphous
CCNCCc1ccc(CN(CC)c2cc(OC)ccc2[C@@H]2CCc3cc(O)ccc3C2)cc1.Cl.Cl [Form B16.] |  | Form 3* |  |  | 
CCNCCc1ccc(CN(CC)c2cc(OC)ccc2[C@@H]2CCc3cc(O)ccc3C2)cc1.Cl.Cl [Form C6.] | Form 3* |  |  |  | Observation After stirring at 25° C. for 72 hours [1]: Crystals
CCNCCc1ccc(CN(CC)c2cc(OC)ccc2[C@@H]2CCc3cc(O)ccc3C2)cc1.Cl.Cl [Form B8.] |  | Form 1 | X (X = suspension) | Crystalline | 
CCNCCc1ccc(CN(CC)c2cc(OC)ccc2[C@@H]2CCc3cc(O)ccc3C2)cc1.Cl.Cl [Form C7.] | Form 2 |  |  |  | Observation After stirring at 25° C. for 72 hours [1]: Crystals
CCNCCc1ccc(CN(CC)c2cc(OC)ccc2[C@@H]2CCc3cc(O)ccc3C2)cc1.Cl.Cl [Form C10.] | Form 3 |  |  |  | Solubility observation at 20 vol. [1]: X (X = suspension); Solubility observation at 30 vol [1]: X (X = suspension)
CCNCCc1ccc(CN(CC)c2cc(OC)ccc2[C@@H]2CCc3cc(O)ccc3C2)cc1.Cl.Cl [Form C5.] |  |  |  |  | Observation After stirring at 25° C. for 72 hours [1]: S
CCNCCc1ccc(CN(CC)c2cc(OC)ccc2[C@@H]2CCc3cc(O)ccc3C2)cc1.Cl.Cl [Form B14.] |  | Poor | X (X = suspension) |  | 
CCNCCc1ccc(CN(CC)c2cc(OC)ccc2[C@@H]2CCc3cc(O)ccc3C2)cc1.Cl.Cl [Form 3] |  |  |  |  | Form obtained on exposure to <40% RH for 8 hr [3]: Form 2
CCNCCc1ccc(CN(CC)c2cc(OC)ccc2[C@@H]2CCc3cc(O)ccc3C2)cc1.Cl.Cl [Form B20.] |  | Form 1 | X (X = suspension) | Crystalline | 
CCNCCc1ccc(CN(CC)c2cc(OC)ccc2[C@@H]2CCc3cc(O)ccc3C2)cc1.Cl.Cl [Form B5.] |  | Form 3 | X (X = suspension) |  | 
CCNCCc1ccc(CN(CC)c2cc(OC)ccc2[C@@H]2CCc3cc(O)ccc3C2)cc1.Cl.Cl [Form C1.] | Form 3 |  |  |  | 
CCNCCc1ccc(CN(CC)c2cc(OC)ccc2[C@@H]2CCc3cc(O)ccc3C2)cc1.Cl.Cl [Form B10.] |  | Form 1 | X (X = suspension) | Fine | 
CCNCCc1ccc(CN(CC)c2cc(OC)ccc2[C@@H]2CCc3cc(O)ccc3C2)cc1.Cl.Cl [Form C2.] | Form 1 |  |  |  | 
CCNCCc1ccc(CN(CC)c2cc(OC)ccc2[C@@H]2CCc3cc(O)ccc3C2)cc1.Cl.Cl [Form B11.] |  |  | S (S = solution) | S | Observation After maturation at 25° C. [2]: S
CCNCCc1ccc(CN(CC)c2cc(OC)ccc2[C@@H]2CCc3cc(O)ccc3C2)cc1.Cl.Cl [Form C4.] | Form 1 |  |  |  | 
CCNCCc1ccc(CN(CC)c2cc(OC)ccc2[C@@H]2CCc3cc(O)ccc3C2)cc1.Cl.Cl [Form B24.] |  | Form 3 | X (X = suspension) | Fine | XRPD post 25° C. (form) [2]: Form 3
CCNCCc1ccc(CN(CC)c2cc(OC)ccc2[C@@H]2CCc3cc(O)ccc3C2)cc1.Cl.Cl [Form B2.] |  | Form 2/3 |  |  | 
CCNCCc1ccc(CN(CC)c2cc(OC)ccc2[C@@H]2CCc3cc(O)ccc3C2)cc1.Cl.Cl [Form B6.] |  | Form 1^+ | X (X = suspension) |  | 
CCNCCc1ccc(CN(CC)c2cc(OC)ccc2[C@@H]2CCc3cc(O)ccc3C2)cc1.Cl.Cl [Form B21.] |  |  |  | Needle | XRPD post 25° C. (form) [2]: Form 1
CCNCCc1ccc(CN(CC)c2cc(OC)ccc2[C@@H]2CCc3cc(O)ccc3C2)cc1.Cl.Cl [Form B4.] |  | Form 2/3 | X (X = suspension) |  | 
CCNCCc1ccc(CN(CC)c2cc(OC)ccc2[C@@H]2CCc3cc(O)ccc3C2)cc1.Cl.Cl [Form B17.] |  | Form 1* |  |  | Observation After maturation at 50° C. [2]: Fine
CCNCCc1ccc(CN(CC)c2cc(OC)ccc2[C@@H]2CCc3cc(O)ccc3C2)cc1.Cl.Cl [Form B23.] |  | Form 3 | X (X = suspension) | Fine | XRPD post 25° C. (form) [2]: Form 3
CCNCCc1ccc(CN(CC)c2cc(OC)ccc2[C@@H]2CCc3cc(O)ccc3C2)cc1.Cl.Cl [Form B22.] |  |  | S (S = solution) | Green | XRPD post 25° C. (form) [2]: Form 3; Observation After maturation at 25° C. [2]: S
